Reference: PubChem BioAssay AID192 (DTP/NCI, 2004)
Several values for one entry are separate records, joined by “and”; a condition that tells them apart may be missing. Equal entries are not always repeated. Inconclusive results and toxic doses are left out.

Test system: BDF1 mice, B16 melanoma ip, median survival T/C
Assay: NCI In Vivo Anticancer Drug Screen. Data for tumor model B16 Melanoma (intraperitoneal) in B6D2F1 (BDF1) mice
Settings: endpoint: median survival time, higher = longer survival
Method in brief: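 Mice with transplantable tumors; drug vs vehicle groups; endpoint survival or tumor size; value = T/C.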

[1] = dose: 12.5 mg/kg/injection, schedule: Q01DX009 (ip), vehicle: Klucel (hydroxypropylcellulose) (HPC)
[2] = dose: 50.0 mg/kg/injection, schedule: Q01DX009 (ip), vehicle: Klucel (hydroxypropylcellulose) (HPC)
[3] = dose: 100.0 mg/kg/injection, schedule: Q01DX009 (ip), vehicle: Klucel (hydroxypropylcellulose) (HPC)
[4] = dose: 400.0 mg/kg/injection, schedule: Q04DX003 (ip), vehicle: saline
[5] = dose: 25.0 mg/kg/injection, schedule: Q01DX009 (ip), vehicle: Klucel (hydroxypropylcellulose) (HPC)
[6] = dose: 200.0 mg/kg/injection, schedule: Q01DX009 (ip), vehicle: Klucel (hydroxypropylcellulose) (HPC)
[7] = dose: 100.0 mg/kg/injection, schedule: Q01DX009 (ip), vehicle: saline
[8] = dose: 200.0 mg/kg/injection, schedule: Q01DX009 (ip), vehicle: saline
[9] = dose: 400.0 mg/kg/injection, schedule: Q01DX009 (ip), vehicle: saline

O=C1C=CC(=O)O1 (tested in a mixture with another compound)
T/C [1]: 124 % of control | T/C (dose: 12.5 mg/kg/injection, schedule: Q04DX003 (ip), vehicle: saline): 111 % of control | T/C (dose: 18.75 mg/kg/injection, schedule: Q04DX003 (ip), vehicle: Klucel (hydroxypropylcellulose) (HPC)): 97 % of control | T/C (dose: 25.0 mg/kg/injection, schedule: Q04DX003 (ip), vehicle: saline): 96 % of control and 121 % of control | T/C (dose: 37.5 mg/kg/injection, schedule: Q04DX003 (ip), vehicle: Klucel (hydroxypropylcellulose) (HPC)): 150 % of control | T/C [2]: 159 % of control | T/C (dose: 50.0 mg/kg/injection, schedule: Q04DX003 (ip), vehicle: saline): 120 % of control and 121 % of control | T/C (dose: 75.0 mg/kg/injection, schedule: Q04DX003 (ip), vehicle: Klucel (hydroxypropylcellulose) (HPC)): 161 % of control | T/C [3]: 150 % of control | T/C (dose: 150.0 mg/kg/injection, schedule: Q04DX003 (ip), vehicle: Klucel (hydroxypropylcellulose) (HPC)): 108 % of control and 208 % of control | T/C (dose: 200.0 mg/kg/injection, schedule: Q01DX009 (ip), vehicle: other): 104 % of control | T/C (dose: 300.0 mg/kg/injection, schedule: Q04DX003 (ip), vehicle: Klucel (hydroxypropylcellulose) (HPC)): 152 % of control and 184 % of control | T/C [4]: 101 % of control

O=C1NC(=O)C2(CCc3ccc(N(CCCl)CCCl)cc32)N1 (stereo unspecified)
T/C (dose: 1.5 mg/kg/injection, schedule: Q01DX009 (ip), vehicle: saline with Tween-80): 120 % of control | T/C (dose: 3.0 mg/kg/injection, schedule: Q01DX009 (ip), vehicle: saline with Tween-80): 116 % of control | T/C (dose: 12.0 mg/kg/injection, schedule: Q01DX009 (ip), vehicle: saline with Tween-80): 183 % of control | T/C (dose: 12.5 mg/kg/injection, schedule: Q01DX004 (oral), vehicle: saline with Tween-80): 102 % of control

CCCCC(=O)OC1CC2CCC1(C)C2(C)C (stereo unspecified)
T/C [3]: 90 % of control

COC1=C(N=[N+]=[N-])C(=O)C(OC)=C(N=[N+]=[N-])C1=O
T/C [1]: 111 % of control | T/C [5]: 95 % of control | T/C [2]: 94 % of control | T/C [3]: 91 % of control

NC(N)=NC1=NC(=O)CS1
T/C (dose: 50.0 mg/kg/injection, schedule: Q04DX003 (ip), vehicle: saline with Tween-80): 102 % of control | T/C [3]: 93 % of control | T/C (dose: 100.0 mg/kg/injection, schedule: Q04DX003 (ip), vehicle: saline with Tween-80): 102 % of control | T/C [6]: 90 % of control | T/C (dose: 200.0 mg/kg/injection, schedule: Q04DX003 (ip), vehicle: saline with Tween-80): 100 % of control

OCC1OC(O)C(O)C(O)C1O (stereo unspecified)
T/C (dose: 500.0 mg/kg/injection, schedule: Q01DX009 (ip), vehicle: saline): 98 % of control | T/C (dose: 1000.0 mg/kg/injection, schedule: Q01DX009 (ip), vehicle: saline): 93 % of control | T/C (dose: 2000.0 mg/kg/injection, schedule: Q01DX009 (ip), vehicle: saline): 103 % of control | T/C (dose: 4000.0 mg/kg/injection, schedule: Q01DX009 (ip), vehicle: saline): 97 % of control

CCCCCCCCCCCCCCCCCC[N+](C)(C)C (tested in a mixture with another compound)
T/C (dose: 0.1 mg/kg/injection, schedule: Q01DX009 (ip), vehicle: saline sonified): 90 % of control | T/C (dose: 2.0 mg/kg/injection, schedule: Q01DX009 (ip), vehicle: saline sonified): 86 % of control | T/C (dose: 4.0 mg/kg/injection, schedule: Q01DX009 (ip), vehicle: saline sonified): 86 % of control

O=C(Nc1cccc([N+](=O)[O-])c1)c1cc2ccccc2cc1O
T/C (dose: 100.0 mg/kg/injection, schedule: Q01DX009 (ip), vehicle: saline with Tween-80): 110 % of control | T/C (dose: 200.0 mg/kg/injection, schedule: Q01DX009 (ip), vehicle: saline with Tween-80): 107 % of control | T/C (dose: 400.0 mg/kg/injection, schedule: Q01DX009 (ip), vehicle: saline with Tween-80): 105 % of control

COc1cc(NC(N)=O)ccc1Nc1c2ccc(N)cc2nc2cc(N)ccc12
T/C (dose: 0.5 mg/kg/injection, schedule: Q01DX009 (ip), vehicle: saline): 104 % of control | T/C (dose: 1.0 mg/kg/injection, schedule: Q01DX009 (ip), vehicle: saline): 102 % of control | T/C (dose: 2.0 mg/kg/injection, schedule: Q01DX009 (ip), vehicle: saline): 108 % of control | T/C (dose: 4.0 mg/kg/injection, schedule: Q01DX009 (ip), vehicle: saline): 102 % of control | T/C (dose: 8.0 mg/kg/injection, schedule: Q01DX009 (ip), vehicle: saline): 102 % of control | T/C (dose: 16.0 mg/kg/injection, schedule: Q01DX009 (ip), vehicle: saline): 104 % of control

O=C1c2ccccc2S(=O)(=O)c2ccc(Br)cc21
T/C [3]: 93 % of control | T/C [6]: 90 % of control | T/C (dose: 400.0 mg/kg/injection, schedule: Q01DX009 (ip), vehicle: Klucel (hydroxypropylcellulose) (HPC)): 93 % of control

O=C(CCBr)N1CCN(C(=O)CCBr)CC1
T/C (dose: 2.5 mg/kg/injection, schedule: Q01DX009 (ip), vehicle: saline with Tween-80): 100 % of control | T/C (dose: 5.0 mg/kg/injection, schedule: Q01DX009 (ip), vehicle: saline with Tween-80): 102 % of control | T/C (dose: 5.0 mg/kg/injection, schedule: Q01DX009 (ip), vehicle: saline): 109 % of control | T/C (dose: 10.0 mg/kg/injection, schedule: Q01DX009 (ip), vehicle: saline with Tween-80): 104 % of control | T/C (dose: 10.0 mg/kg/injection, schedule: Q01DX009 (ip), vehicle: saline): 111 % of control and 117 % of control | T/C (dose: 20.0 mg/kg/injection, schedule: Q01DX009 (ip), vehicle: saline with Tween-80): 116 % of control | T/C (dose: 20.0 mg/kg/injection, schedule: Q01DX009 (ip), vehicle: saline): 119 % of control | T/C (dose: 40.0 mg/kg/injection, schedule: Q01DX009 (ip), vehicle: saline with Tween-80): 122 % of control

CC[CH2][Pb]([CH2]CC)([CH2]CC)[O]C(=O)C(Cl)(Cl)Cl
T/C (dose: 2.0 mg/kg/injection, schedule: Q01DX009 (ip), vehicle: Klucel (hydroxypropylcellulose) (HPC)): 120 % of control | T/C (dose: 4.0 mg/kg/injection, schedule: Q01DX009 (ip), vehicle: Klucel (hydroxypropylcellulose) (HPC)): 112 % of control

CC1CC(C)(O)CC(C(O)CC2CC(=O)NC(=O)C2)C1=O (stereo unspecified)
T/C (dose: 0.98 mg/kg/injection, schedule: Q04DX003 (ip), vehicle: saline): 111 % of control | T/C (dose: 1.4 mg/kg/injection, schedule: Q04DX003 (ip), vehicle: saline): 100 % of control | T/C (dose: 2.0 mg/kg/injection, schedule: Q04DX003 (ip), vehicle: saline): 91 % of control | T/C (dose: 2.86 mg/kg/injection, schedule: Q04DX003 (ip), vehicle: saline): 102 % of control

COc1cc(OC)c(OC)cc1/C=C\c1ccnc2ccccc12
T/C [7]: 97 % of control | T/C [8]: 105 % of control | T/C [9]: 107 % of control | T/C (dose: 800.0 mg/kg/injection, schedule: Q01DX009 (ip), vehicle: saline): 102 % of control

CC1OC2COC(C)OC2C(C(O)COC(c2ccccc2)(c2ccccc2)c2ccccc2)O1 (stereo unspecified)
T/C (dose: 1.56 mg/kg/injection, schedule: Q01DX009 (ip), vehicle: Klucel (hydroxypropylcellulose) (HPC)): 89 % of control | T/C (dose: 3.12 mg/kg/injection, schedule: Q01DX009 (ip), vehicle: Klucel (hydroxypropylcellulose) (HPC)): 89 % of control | T/C (dose: 6.25 mg/kg/injection, schedule: Q01DX009 (ip), vehicle: Klucel (hydroxypropylcellulose) (HPC)): 88 % of control | T/C (dose: 50.0 mg/kg/injection, schedule: Q04DX003 (ip), vehicle: Klucel (hydroxypropylcellulose) (HPC)): 92 % of control | T/C (dose: 100.0 mg/kg/injection, schedule: Q04DX003 (ip), vehicle: Klucel (hydroxypropylcellulose) (HPC)): 97 % of control | T/C [6]: 109 % of control

O=C(Cl)C1(Br)CC2c3ccccc3C1([N+](=O)[O-])c1ccccc12 (stereo unspecified)
T/C [1]: 100 % of control | T/C [5]: 97 % of control | T/C [2]: 97 % of control | T/C [3]: 91 % of control | T/C [6]: 88 % of control

O=[N+]([O-])c1cccc(P(=O)(c2cccc([N+](=O)[O-])c2)c2cccc([N+](=O)[O-])c2)c1
T/C [7]: 105 % of control | T/C (dose: 100.0 mg/kg/injection, schedule: Q04DX003 (ip), vehicle: saline): 94 % of control | T/C [8]: 100 % of control | T/C (dose: 200.0 mg/kg/injection, schedule: Q04DX003 (ip), vehicle: saline): 100 % of control | T/C [9]: 107 % of control | T/C [4]: 100 % of control
